Reference: US8232307B2, “Indane-amine derivatives, their preparation and use as medicaments” (Laboratorios del Dr. Esteve, S.A., priority 2007, dated 2012)
Counter-ions that a name gives are not always drawn.

Molecular target: T1, Cloned Human Serotonin Receptor, Subtype 7 (h5HT7) (Homo sapiens, UniProt P34969)
T1 construct: purchased PerkinElmer 6120512; host or cells: CHO cells (membranes coated on Basic FlashPlate SMP200)
Assay: Radioligand binding assay, [125I]LSD, h5HT7 expressed in CHO cells
Details: radioligand [125I]LSD 0.82 nM; for IC50: read-out: 5-HT7 IC50; for Ki: read-out: 5-HT7 Ki
Method: Radioligand binding assays were performed using the Cloned Human Serotonin Receptor, Subtype 7 (h5HT7), expressed in CHO cells, coated on Flashplate (Basic FlashPlate Cat.: SMP200) from PerkinElmer (Cat.: 6120512). The protocol assay was essentially the recommended protocol in the Technical Data Sheet by PerkinEmer Life and Analytical Sciences. The Mass membrane protein/well was typically 12 μg and the Receptor/well was about 9-10 fmoles. The Flashplate were let equilibrate at room temperature for one hour before the addition of the components of the assay mixture. The binding buffer was: 50 mM Tris-HCl, pH 7.4, containing 10 mM MgCl2, 0.5 mM EDTA and 0.5% BSA. The radioligand was [^125I]LSD at a final concentration of 0.82 nM. Nonspecific binding was determined with 50 μM of Clozapine. The assay volume was 25 μl. TopSeal-A were applied onto Flashplate microplates and they were incubated at room temperature for 240 minutes in darkness. The radioactivity were quantified by liquid scintillation spectrophotometry (Wallac 1450 Microbeta Trilux) with a count delay of 4 minutes prior to counting and a counting time of 30 seconds per well. Competition binding data were analyzed by using the LIGAND program (Munson and Rodbard, LIGAND: A versatile, computerized approach for characterization of ligand-binding systems. Anal. Biochem. 107: 220-239, 1980) and assays were performed in triplicate determinations for each point.

T1 sequence (P34969 whole entry): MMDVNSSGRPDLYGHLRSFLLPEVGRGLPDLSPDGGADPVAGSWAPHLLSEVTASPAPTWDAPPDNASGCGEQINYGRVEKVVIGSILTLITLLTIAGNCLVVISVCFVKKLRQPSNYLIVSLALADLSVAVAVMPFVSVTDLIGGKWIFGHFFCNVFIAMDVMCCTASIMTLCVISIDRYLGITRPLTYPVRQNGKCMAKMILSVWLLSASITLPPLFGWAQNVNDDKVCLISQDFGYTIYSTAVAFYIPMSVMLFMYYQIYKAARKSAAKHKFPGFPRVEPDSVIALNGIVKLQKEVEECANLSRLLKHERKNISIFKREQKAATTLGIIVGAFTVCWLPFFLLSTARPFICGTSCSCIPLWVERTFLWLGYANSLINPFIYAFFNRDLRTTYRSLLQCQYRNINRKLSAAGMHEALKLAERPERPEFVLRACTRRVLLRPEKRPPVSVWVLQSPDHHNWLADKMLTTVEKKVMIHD

Compound	IC50 [nM]	Ki [nM]
Cc1nn(C)c(C)c1-c1ccc2c(c1)[C@H](N(C)C)CC2 [Example 2, (R)-Dimethyl-[6-(1,3,5-trimethyl-1H-pyrazol-4-yl)-indan-1-yl]-amine]	5.5 ± 2.7	
CNC1CCc2ccc(-c3c(C)nn(C)c3C)cc21 (stereo not drawn) [Example 4, Methyl-[6-(1,3,5-trimethyl-1H-pyrazol-4-yl)-indan-1-yl]-amine]	18.7	
COc1cccc(OC)c1-c1ccc2c(c1)C(N(C)C)CC2 (stereo not drawn) [Example 10, [6-(2,6-Dimethoxy-phenyl)-indan-1-yl]-dimethyl-amine]	53.5 ± 10.1	
COc1ccccc1-c1ccc2c(c1)C(N(C)C)CC2 (stereo not drawn) [Example 12, [6-(2-Methoxy-phenyl)-indan-1-yl]-dimethyl-amine]	68.4 ± 1.1	
CNC1CCc2ccc(-c3ccccc3OC)cc21 (stereo not drawn) [Example 13, [6-(2-Methoxy-phenyl)-indan-1-yl]-methyl-amine]	77.7 ± 40.9	
Cc1cccc(C)c1-c1ccc2c(c1)C(N(C)C)CC2 (stereo not drawn) [Example 14, [6-(2,6-Dimethyl-phenyl)-indan-1-yl]-dimethyl-amine]		198 ± 31.9
CNC1CCc2ccc(-c3c(F)cccc3F)cc21 (stereo not drawn) [Example 19, [6-(2,6-Difluoro-phenyl)-indan-1-yl]-methyl-amine]		47.6 ± 1.2
COc1cccc(Cl)c1-c1ccc2c(c1)C(N(C)C)CC2 (stereo not drawn) [Example 20, [6-(2-Chloro-6-methoxy-phenyl)-indan-1-yl]-dimethyl-amine]		25.8 ± 2.7
Cc1nn(C)c(C)c1-c1ccc2c(c1)C([N+](C)(C)C)CC2 (stereo not drawn) [Example 36, Trimethyl-[6-(1,3,5-trimethyl-1H-pyrazol-4-yl)-indan-1-yl]-ammonium iodide]		153 ± 32.4

The next lines start with the values.

IC50 [nM]	Ki [nM]	Compound
15.5 ± 2.9		Cc1nn(C)c(C)c1-c1ccc2c(c1)C(N(C)C)CC2 (stereo not drawn) [Example 1, Dimethyl-[6-(1,3,5-trimethyl-1H-pyrazol-4-yl)-indan-1-yl]-amine dihydrochloride]
307 ± 181		Cc1nn(C)c(C)c1-c1ccc2c(c1)[C@@H](N(C)C)CC2 [Example 3, (S) Dimethyl-[6-(1,3,5-trimethyl-1H-pyrazol-4-yl)-indan-1-yl]-amine]
195 ± 86		CNC1CCc2ccc(-c3c(OC)cccc3OC)cc21 (stereo not drawn) [Example 11, [6-(2,6-Dimethoxy-phenyl)-indan-1-yl]-methyl-amine]
	75.2 ± 2	CNC1CCc2ccc(-c3c(C)cccc3C)cc21 (stereo not drawn) [Example 15, [6-(2,6-Dimethyl-phenyl)-indan-1-yl]-methyl-amine]
	55.7 ± 1.2	CNC1CCc2ccc(-c3c(Cl)cccc3OC)cc21 (stereo not drawn) [Example 21, [6-(2-Chloro-6-methoxy-phenyl)-indan-1-yl]-methyl-amine]
	73.3 ± 9.3	CN[C@@H]1CCc2ccc(-c3c(C)nn(C)c3C)cc21 [Example 38, (R) Methyl-[6-(1,3,5-trimethyl-1H-pyrazol-4-yl)-indan-1-yl]-amine]
